The record followed here is patent US6153589A, “2,3-epoxy alcohols, acids and derivatives as anti retroviral chemotherapeutic agents” (The United States of America as represented by the …, priority 1992, dated 2000).

One assay deals with HIV-2 protease. Kind of assay: HIV protease cleavage of nonapeptide (HPLC). The following applies: 0.5 μl of 10 μg/μl inhibitor in DMSO per 10 μl reaction; pH 6.5, room temperature; pentapeptide product relative to DMSO control; sampled at ca. 16 and 40 hr (time not given). In kind it is biochemical. As for the experimental part: Activity Against HIV Protease
The assay for proteolyic activity is a modified version of that previously described by Copeland et al., Gene Anal. Tech., 5:109-115 (1988). For each assay to be performed 2 microliters of protease solution (ca. 100 ng) is added to 3 μg of nonapeptide (Val-Ser-Gln-Asn-Tyr-Pro-Ile-Val-Gln-NH2) in 8 μl of 200 mM sodium phosphate, 1 M NaCl, 5% glycerol, 0.25% Nonidet-40, at pH 6.5. This affords a stock solution containing 10 μl per number of reactions. This stock is aliquoted out in 10 μl portions to which 0.5 μl of DMSO (a control is run with each set of assays to compensate for minor experimental variations) or a DMSO solution containing 10 μg/μl of an inhibitor, i.e., any one of the compounds of the present invention, is added. The reactions were incubated at room temperature and 4 μl portions were removed at ca. 16 and 40 hr. intervals. HPLC analysis was performed on a 4.6×250 mm Lichrosorb RP-18 column eluted with a gradient of 0-40% acetonitrile in water (containing 0.05% TFA) over 30 min monitoring absorbance at 206 nm. Progress of the enzymatic cleavage was followed by monitoring the appearance of the pentapeptide (Val-Ser-Gln-Asn-Tyr-OH) cleavage product. The activity is expressed as the amount of the pentapeptide (Val-Ser-Gln-Asn-Tyr-OH) observed relative to the control reaction for that set of assays.
Inhibition of HIV-2 protease

The next assay has as its target T1, porcine Renin (Sus scrofa, UniProt A0A287APG1).
T1 construct: purchased Sigma
Kind of assay: Porcine Renin cleavage of porcine tetradecapeptide (HPLC). The following applies: 0.5 μl of 50 μg/μl inhibitor in DMSO in 50 μl; pH 6.00, room temperature, 70 min; relative to uninhibited control. In kind it is biochemical. From the text:
Renin Activity: Porcine Renin Cleavage of Porcine Tetradecapeptide
Proteolytic enzymes are ubiquitous in many living systems. Renin is an asparxyl protease found in mammals which is responsible for the regulation of blood pressure. Structural and functional similarities between Renin and retroviral proteases have been previously noted (Pearl, L. H., Taylor, W. R., (1987) Nature, 329, 351-354). Consequently, successful therapeutic inhibition of retroviral proteases depends on the ability of the inhibitor to inhibit the retroviral enzyme while having a greatly diminished effect on normally occurring enzymes like Renin. The failure to inhibit the desired enzyme selectively may have an adverse effect on normal biochemical functions. The similarity of Renin to retroviral proteases and its viral normal bodily function makes it an attractive system in which to examine inhibitory selectivity.
Renin activity was determined by a method similar to that described above for the HIV protease. A solution containing 0.37 m unit (0.5 μl of stock solution containing 0.75 m unit/μl) of porcine Renin (Sigma) was added to 5 μg of porcine angiotensinogen in 50 μl of 0.1 M citrate-phosphate buffer (pH 6.00) containing 0.25% NP-40. A DMSO solution containing the inhibitor (0.5 μl of a 50 μg/μl solution) was added and the reaction was allowed to incubate at room temperature for 70 min. The entire mixture was analyzed by HPLC chromatographic analysis was perforemd on a 4.6×250 mm Lichrosorb RP-18 column eluting with a gradient of 0-50% acetonitrile in 0.02 M KH2 Po4 (pH 4.7) over 30 min monitoring absorbance at 206 nm. Appearance of both the tetrapeptide and the decapeptide products may be monitored under these conditions. Enzyme activity is expressed as the amount of tetrapeptide produced relative to an uninhibited control, and are summarized in Table 3 below.

In another assay the test system is HIV1 IIIb. Kind of assay: microbe, parasite or virus in culture. It is filed as cell-based. To be noted: Human immunodeficiency virus 1, IIIB; for viability at 10 µg/mL: 10 ug/ml; for viability at 23 µg/mL: 23 ug/ml; for viability at 11.5 µg/mL: 11.5 ug/ml; for viability at 31.9 µg/mL: 31.9 ug/ml; for viability at 3.9 µg/mL: 3.9 ug/ml; for viability at 1 µg/mL: 1 ug/ml; for viability at 6.3 µg/mL: 6.3 ug/ml; for viability at 31.5 µg/mL: 31.5 ug/ml; for viability at 24.6 µg/mL: 24.6 ug/ml; for viability at 27.2 µg/mL: 27.2 ug/ml. In outline:
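Human host cells infected with HIV1 IIIb (virus-producing H9 cells or cell-free virus) and incubated seven days with compound. Viable cells measured by XTT formazan absorbance; response expressed as % of uninfected controls against virus kill %. Some cultures redosed after 3 days.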

[1] abbreviates: 168 h, read-out: Antiviral Effect (viable cells as % of uninfected controls), run 15*, source V (cell free virus), virus kill 25.0%, culture redosed with compound after 3 days.

Read-outs that look alike come from different tables or passages of the source.

T1 sequence (A0A287APG1 24-407): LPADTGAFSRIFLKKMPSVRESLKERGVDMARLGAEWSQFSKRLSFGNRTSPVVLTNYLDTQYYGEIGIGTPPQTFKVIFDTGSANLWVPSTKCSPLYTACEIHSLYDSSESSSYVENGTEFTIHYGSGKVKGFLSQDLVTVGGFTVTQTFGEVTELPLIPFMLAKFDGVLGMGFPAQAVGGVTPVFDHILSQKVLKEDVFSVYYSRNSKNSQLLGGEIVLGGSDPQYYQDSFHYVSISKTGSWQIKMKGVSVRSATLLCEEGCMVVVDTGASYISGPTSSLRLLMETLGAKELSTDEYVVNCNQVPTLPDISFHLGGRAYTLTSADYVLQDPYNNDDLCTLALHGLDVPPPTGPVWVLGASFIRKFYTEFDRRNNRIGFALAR

Turning to `O=[N+]([O-])c1ccc(OCC2CO2)cc1` (stereo not drawn) [1,2-Epoxy-3-(p-nitrophenoxy)propane, reference compound], the “Percent Control Cleavage of Nonapeptide HIV-1 Cleavage Site Fragment” value (“Percent Control Cleavage” for short) in the assay on HIV-2 protease stood at 18%. Moreover, the “Percent control (tetrapeptide produced)” value on porcine Renin stood at 106%.
With `CCCCCCCCC[C@H]1O[C@H]1CO` [Example 11, (2S-cis)-3-Nonyloxirane Methanol], the “Percent Control Cleavage” value in the assay on HIV-2 protease is listed as 85%. Moreover, on porcine Renin, the “Percent control (tetrapeptide produced)” value turned out to be 106%. The viability at 10 µg/mL is 110% in the assay on HIV1 IIIb (168 h, read-out: Antiviral Effect (viable cells as % of uninfected controls), run 8, source V (cell free virus), virus kill 25.0%) and 60.2% in the assay on HIV1 IIIb (H9, 168 h, read-out: Antiviral Effect (viable cells as % of uninfected controls), run 1, source C (virus producing H9 cells), virus kill 6.0%). In addition, the viability at 23 µg/mL was found to be 30% with HIV1 IIIb (168 h, read-out: Antiviral Effect (viable cells as % of uninfected controls), run 9, source V (cell free virus), virus kill 23.0%) and 19.9% in the assay on HIV1 IIIb (H9, 168 h, read-out: Antiviral Effect (viable cells as % of uninfected controls), run 3, source C (virus producing H9 cells), virus kill 14.0%). The viability at 11.5 µg/mL in the assay with HIV1 IIIb (168 h, read-out: Antiviral Effect (viable cells as % of uninfected controls), run 10, source V (cell free virus), virus kill 49.0%) was 68.5%; in the assay on HIV1 IIIb (168 h, read-out: Antiviral Effect (viable cells as % of uninfected controls), run 12, source V (cell free virus), virus kill 30.0%), 80.4%; with HIV1 IIIb (H9, 168 h, read-out: Antiviral Effect (viable cells as % of uninfected controls), run 4, source C (virus producing H9 cells), virus kill 12.5%), 18.1%; in the assay with HIV1 IIIb (H9, 168 h, read-out: Antiviral Effect (viable cells as % of uninfected controls), run 6, source C (virus producing H9 cells), virus kill 9.0%), 12.3%. The viability at 31.9 µg/mL is 65.1% in the assay on HIV1 IIIb (168 h, read-out: Antiviral Effect (viable cells as % of uninfected controls), run 11, source V (cell free virus), virus kill 53.0%); 82.6% with HIV1 IIIb (168 h, read-out: Antiviral Effect (viable cells as % of uninfected controls), run 13, source V (cell free virus), virus kill 22.0%); 23.9% in the assay with HIV1 IIIb (H9, 168 h, read-out: Antiviral Effect (viable cells as % of uninfected controls), run 5, source C (virus producing H9 cells), virus kill 13.0%); 13% in the assay on HIV1 IIIb (H9, 168 h, read-out: Antiviral Effect (viable cells as % of uninfected controls), run 7, source C (virus producing H9 cells), virus kill 11.0%). In addition, the viability at 3.9 µg/mL with HIV1 IIIb (168 h, read-out: Antiviral Effect (viable cells as % of uninfected controls), run 14, source V (cell free virus), virus kill 20.0%) worked out at 21.5%; in the assay with HIV1 IIIb (setting [1]), 32.4%. Further, in the assay on HIV1 IIIb (H9, 168 h, read-out: Antiviral Effect (viable cells as % of uninfected controls), run 2, source C (virus producing H9 cells), virus kill 25.0%), the viability at 1 µg/mL was found to be 37.5%.
Regarding `CCCCCCCCC[C@H]1O[C@H]1C(=O)O` [Example 21, (2R-cis)-3-Nonyloxiranecarboxylic Acid], the “Percent control (tetrapeptide produced)” value on porcine Renin is 86%. Moreover, the viability at 10 µg/mL stood at 94% with HIV1 IIIb (168 h, read-out: Antiviral Effect (viable cells as % of uninfected controls), run 8, source V (cell free virus), virus kill 23.0%) and 27.3% in the assay with HIV1 IIIb (H9, 168 h, read-out: Antiviral Effect (viable cells as % of uninfected controls), run 2, source C (virus producing H9 cells), virus kill 22.0%). Besides, the viability at 6.3 µg/mL with HIV1 IIIb (168 h, read-out: Antiviral Effect (viable cells as % of uninfected controls), run 9, source V (cell free virus), virus kill 19.0%) is 25.7%; with HIV1 IIIb (H9, 168 h, read-out: Antiviral Effect (viable cells as % of uninfected controls), run 3, source C (virus producing H9 cells), virus kill 12.0%), 16.6%. In addition, the viability at 31.5 µg/mL with HIV1 IIIb (168 h, read-out: Antiviral Effect (viable cells as % of uninfected controls), run 10, source V (cell free virus), virus kill 53.0%) was 75.3%; in the assay with HIV1 IIIb (168 h, read-out: Antiviral Effect (viable cells as % of uninfected controls), run 12, source V (cell free virus), virus kill 27.0%) it was 62%; in the assay with HIV1 IIIb (H9, 168 h, read-out: Antiviral Effect (viable cells as % of uninfected controls), run 4, source C (virus producing H9 cells), virus kill 14.0%), 19.6%; with HIV1 IIIb (H9, 168 h, read-out: Antiviral Effect (viable cells as % of uninfected controls), run 6, source C (virus producing H9 cells), virus kill 12.0%), 10.7%. In addition, the viability at 24.6 µg/mL in the assay on HIV1 IIIb (168 h, read-out: Antiviral Effect (viable cells as % of uninfected controls), run 11, source V (cell free virus), virus kill 57.0%) turned out to be 64.3%; in the assay with HIV1 IIIb (168 h, read-out: Antiviral Effect (viable cells as % of uninfected controls), run 13, source V (cell free virus), virus kill 40.0%), 88%; in the assay with HIV1 IIIb (H9, 168 h, read-out: Antiviral Effect (viable cells as % of uninfected controls), run 5, source C (virus producing H9 cells), virus kill 14.0%), 21.6%; in the assay on HIV1 IIIb (H9, 168 h, read-out: Antiviral Effect (viable cells as % of uninfected controls), run 7, source C (virus producing H9 cells), virus kill 18.0%), 13%. Moreover, the viability at 27.2 µg/mL came out at 25.7% in the assay with HIV1 IIIb (168 h, read-out: Antiviral Effect (viable cells as % of uninfected controls), run 14, source V (cell free virus), virus kill 18.0%) and 28.1% with HIV1 IIIb (setting [1]). Also, in the assay on HIV1 IIIb (H9, 168 h, read-out: Antiviral Effect (viable cells as % of uninfected controls), run 1, source C (virus producing H9 cells), virus kill 9.0%), the viability at 1 µg/mL amounted to 18.9%.
On to `CCCCCCCCC[C@@H]1O[C@H]1C(=O)O` [Example 35, (2R-trans)-3-Nonyloxiranecarboxylic Acid], for which the “Percent Control Cleavage” value in the assay on HIV-2 protease turned out to be 77%. Also, at porcine Renin, the “Percent control (tetrapeptide produced)” value was 72%.
The corresponding values for `CCCCCCCCC[C@H]1O[C@@H]1C(=O)O` [Example 36, (2S-trans)-3-Nonyloxiranecarboxylic acid] are 12% and 12%.
For `CCCCCCCCCCC[C@@H]1O[C@H]1C(=O)O` [Example 39, (2R-trans)-3-Undecyloxiranecarboxylic Acid], at porcine Renin, the “Percent control (tetrapeptide produced)” value worked out at 51%.
For `CCCCCCCCCCC[C@H]1O[C@@H]1C(=O)O` [Example 40, (2S-trans)-3-Undecyloxiranecarboxylic Acid], the “Percent Control Cleavage” value in the assay on HIV-2 protease came to 93%. Also, on porcine Renin, the “Percent control (tetrapeptide produced)” value is 71%.
